pIC50: −log10 of the molar value.
These molecules were tested against T1, full-length MALT1 protein (Strep-MALT1(1-824)-His) (Homo sapiens, UniProt Q9UDY8) (assay: biochemical).
T1 sequence (Q9UDY8 1-824): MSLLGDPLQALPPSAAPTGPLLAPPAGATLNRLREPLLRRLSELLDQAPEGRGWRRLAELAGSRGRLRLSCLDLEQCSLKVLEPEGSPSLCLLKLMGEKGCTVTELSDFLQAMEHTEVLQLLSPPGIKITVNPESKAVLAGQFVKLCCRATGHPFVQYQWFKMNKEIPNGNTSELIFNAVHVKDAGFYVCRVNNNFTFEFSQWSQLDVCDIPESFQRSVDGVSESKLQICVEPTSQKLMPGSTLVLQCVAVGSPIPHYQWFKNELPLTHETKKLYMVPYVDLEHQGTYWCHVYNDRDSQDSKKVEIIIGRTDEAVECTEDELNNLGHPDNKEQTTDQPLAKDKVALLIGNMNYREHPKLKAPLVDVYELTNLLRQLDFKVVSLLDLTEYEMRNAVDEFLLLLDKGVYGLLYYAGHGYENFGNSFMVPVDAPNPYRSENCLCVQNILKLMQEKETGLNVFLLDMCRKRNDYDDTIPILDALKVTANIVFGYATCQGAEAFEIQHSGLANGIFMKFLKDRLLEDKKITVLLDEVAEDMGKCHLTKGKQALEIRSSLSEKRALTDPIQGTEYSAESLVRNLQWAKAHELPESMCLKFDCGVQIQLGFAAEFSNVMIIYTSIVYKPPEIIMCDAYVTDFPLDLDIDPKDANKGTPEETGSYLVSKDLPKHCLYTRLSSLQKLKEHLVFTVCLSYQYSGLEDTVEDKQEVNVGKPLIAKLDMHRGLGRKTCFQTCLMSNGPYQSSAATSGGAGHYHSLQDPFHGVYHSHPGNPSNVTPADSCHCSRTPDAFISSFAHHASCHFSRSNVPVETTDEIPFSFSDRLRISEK
Description: MALT1 protease activity was assessed in an in vitro assay using a tetrapeptide as substrate and full-length MALT1 protein (Strep-MALT1(1-824)-His) purified from baculovirus-infected insect cells. The tetrapeptide LRSR is coupled to AMC (7-amino-4-methylcoumarin) and provides a quenched, fluorescent substrate for the MALT1 protease (SM Biochemicals). Cleavage of AMC from the Arginine residue results in an increase in coumarin fluorescence measured at 460 nm (excitation 355 nm). […] Test compounds were spotted at 50 nL in 100% DMSO per well of a black 384-Proxiplate (Perkin Elmer). Test compound concentrations ranged from 30 μM to 0.5 nM using 11 dilution steps (1:3). Background signal was measured from control wells containing assay buffer without enzyme which functions as low control (LC). High control (HC) values were generated using the reaction with enzyme but no compound treatment. Compounds were pre-incubated with MALT1 enzyme for 50 minutes at RT. Substrate was added subsequently and fluorescence was measured in Labsystems fluoroskan at excitation 355 nm and emission 460 nm to determine time 0. The reaction was subsequently incubated for 4 h at RT and fluorescence was measured. […] The enzyme reaction was linear during the 4 h incubation period.
IC50 values were calculated using the following formula (Z prime should be >0.5):
From this an IC50 value (inhibitory concentration causing 50% inhibition) can be obtained. An estimate of the slope of the plot in terms of the Hill coefficient was also obtained.
With y=estimated response • UB=upper bound • LB=lower bound • h=hill
`Cc1nc(C#N)ccc1-n1ncc(C(=O)Nc2cnc(-n3nccn3)c(Cl)c2)c1C(F)(F)F` [Cpd 201, N-(5-chloro-6-(2H-1,2,3-triazol-2-yl)pyridin-3-yl)-1-(6-cyano-2-methylpyridin-3-yl)-5-(trifluoromethyl)-1H-pyrazole-4-carboxamide] showed a pIC50 of 6.86. In the case of `Cc1c(-n2ncc(C(=O)Nc3cnc(-n4nccn4)c(Cl)c3)c2C(F)(F)F)ccnc1N` [Cpd 199, 1-(2-amino-3-methylpyridin-4-yl)-N-(5-chloro-6-(2H-1,2,3-triazol-2-yl)pyridin-3-yl)-5-(trifluoromethyl)-1H-pyrazole-4-carboxamide], the pIC50 was 6.76. Work on `O=C(Nc1cnc(-n2nccn2)c(Cl)c1)c1cnn(-c2ccccc2)c1F` [Cpd 26, N-(5-chloro-6-(2H-1,2,3-triazol-2-yl)pyridin-3-yl)-5-fluoro-1-phenyl-1H-pyrazole-4-carboxamide] yielded a pIC50 of 5.15. `COc1cc(-n2ncc(C(=O)Nc3cnc(-n4nccn4)c(C#N)c3)c2C(F)(F)F)ccn1` [Cpd 41, N-(5-Cyano-6-(2H-1,2,3-triazol-2-yl)pyridin-3-yl)-1-(2-methoxypyridin-4-yl)-5-(trifluoromethyl)-1H-pyrazole-4-carboxamide] gave a pIC50 of 5.69. For `Cc1cccc(-n2ncc(C(=O)Nc3cnc(-n4nccn4)c(Cl)c3)c2C(F)(F)F)c1` [Cpd 28, N-(5-chloro-6-(2H-1,2,3-triazol-2-yl)pyridin-3-yl)-1 (m-tolyl)-5-(trifluoromethyl)-1H-pyrazole-4-carboxamide], the pIC50 was 5.61. Work on `Cc1ccnc(-n2ncc(C(=O)Nc3cnc(-n4nccn4)c(C#N)c3)c2C(F)(F)F)c1Cl` [Cpd 47, 1-(3-chloro-4-methylpyridin-2-yl)-N-(5-cyano-6-(2H-1,2,3-triazol-2-yl)pyridin-3-yl)-5-(trifluoromethyl)-1H-pyrazole-4-carboxamide] yielded a pIC50 of 6.27. For `Cc1nc(Cl)ccc1-n1ncc(C(=O)Nc2cnc(-n3nccn3)c(C#N)c2)c1C(F)(F)F` [Cpd 95, 1-(6-chloro-2-methylpyridin-3-yl)-N-(5-cyano-6-(2H-1,2,3-triazol-2-yl)pyridin-3-yl)-5-(trifluoromethyl)-1H-pyrazole-4-carboxamide], the pIC50 was 6.50. Work on `O=C(Nc1cnc(-n2nccn2)c(Cl)c1)c1cnn(-c2nc(Cl)ccc2Cl)c1C(F)(F)F` [Cpd 163, N-(5-chloro-6-(2H-1,2,3-triazol-2-yl)pyridin-3-yl)-1-(3,6-dichloropyridin-2-yl)-5-(trifluoromethyl)-1H-pyrazole-4-carboxamide] yielded a pIC50 of 6.10. Molecule `O=C(Nc1cnc(-n2nccn2)c(Cl)c1)c1cnn(-c2c(F)cc(F)cc2Cl)c1C(F)(F)F` [Cpd 94, 1-(2-chloro-4,6-difluorophenyl)-N-(5-chloro-6-(2H-1,2,3-triazol-2-yl)pyridin-3-yl)-5-(trifluoromethyl)-1H-pyrazole-4-carboxamide] has a pIC50 of 6.35. Work on `O=C(Nc1cnc(-n2nccn2)c(Cl)c1)c1cnn(-c2c(Cl)cncc2Cl)c1C(F)(F)F` [Cpd 67, N-(5-chloro-6-(2H-1,2,3-triazol-2-yl)pyridin-3-yl)-1-(3,5-dichloropyridin-4-yl)-5-(trifluoromethyl)-1H-pyrazole-4-carboxamide] yielded a pIC50 of 6.28. In the case of `Cc1cnc(Cl)cc1-n1ncc(C(=O)Nc2cnc(-n3nccn3)c(Cl)c2)c1C(F)(F)F` [Cpd 154, 1-(2-chloro-5-methyl-4-pyridyl)-N-[5-chloro-6-(triazol-2-yl)-3-pyridyl]-5-(trifluoromethyl)pyrazole-4-carboxamide], the pIC50 was 6.02. In the case of `O=C(Nc1cnc(-n2nccn2)c(Cl)c1)c1cnn(-c2ccc(F)nc2)c1C(F)(F)F` [Cpd 121, N-(5-chloro-6-(2H-1,2,3-triazol-2-yl)pyridin-3-yl)-1-(6-fluoropyridin-3-yl)-5-(trifluoromethyl)-1H-pyrazole-4-carboxamide], the pIC50 was 5.93. `Cc1cnc([C@H]2COCCO2)cc1-n1ncc(C(=O)Nc2cnc(-n3nccn3)c(Cl)c2)c1C(F)(F)F` (single isomer, unassigned) [Cpd 205, (*S)-1-(2-(1,4-dioxan-2-yl)-5-methylpyridin-4-yl)-N-(5-chloro-6-(2H-1,2,3-triazol-2-yl)pyridin-3-yl)-5-(trifluoromethyl)-1H-pyrazole-4-carboxamide] was tested, and the pIC50 was 5.72. `N#Cc1cc(NC(=O)c2cnn(-c3ccc(F)c(Cl)c3)c2C(F)(F)F)cnc1-n1nccn1` [Cpd 109, 1-(3-chloro-4-fluorophenyl)-N-(5-cyano-6-(2H-1,2,3-triazol-2-yl)pyridin-3-yl)-5-(trifluoromethyl)-1H-pyrazole-4-carboxamide] showed a pIC50 of 6.37. For `O=C(Nc1cnc(-n2nccn2)c(Cl)c1)c1cnn(-c2cccc(C3=COCCO3)n2)c1C(F)(F)F` [Cpd 208, N-(5-chloro-6-(2H-1,2,3-triazol-2-yl)pyridin-3-yl)-1-(6-(5,6-dihydro-1,4-dioxin-2-yl)pyridin-2-yl)-5-(trifluoromethyl)-1H-pyrazole-4-carboxamide], the pIC50 was 5.29. Work on `Cc1ccncc1-n1ncc(C(=O)Nc2cnc(-n3nccn3)c(C#N)c2)c1C(F)(F)F` [Cpd 91, N-(5-cyano-6-(2H-1,2,3-triazol-2-yl)pyridin-3-yl)-1-(4-methylpyridin-3-yl)-5-(trifluoromethyl)-1H-pyrazole-4-carboxamide] yielded a pIC50 of 6.29. `Cc1cc(F)c(N)nc1-n1ncc(C(=O)Nc2cc(Cl)c(-n3nccn3)nc2C)c1C(F)(F)F` [Cpd 188, 1-(6-amino-5-fluoro-3-methylpyridin-2-yl)-N-(5-chloro-2-methyl-6-(2H-1,2,3-triazol-2-yl)pyridin-3-yl)-5-(trifluoromethyl)-1H-pyrazole-4-carboxamide] gave a pIC50 of 6.42. With `Cc1nc(-n2nccn2)c(Cl)cc1NC(=O)c1cnn(-c2ccc(C#N)c(N)n2)c1C(F)(F)F` [Cpd 178, 1-(6-amino-5-cyanopyridin-2-yl)-N-(5-chloro-2-methyl-6-(2H-1,2,3-triazol-2-yl)pyridin-3-yl)-5-(trifluoromethyl)-1H-pyrazole-4-carboxamide] the pIC50 was 6.70. In the case of `Cc1nc(-n2nccn2)c(Cl)cc1NC(=O)c1cnn(-c2ccc(C(N)=O)c(N)n2)c1C(F)(F)F` [Cpd 198, 2-amino-6-(4-((5-chloro-2-methyl-6-(2H-1,2,3-triazol-2-yl)pyridin-3-yl)carbamoyl)-5-(trifluoromethyl)-1H-pyrazol-1-yl)nicotinamide], the pIC50 was 5.43. In the case of `O=C(Nc1cnc(-n2nccn2)c(Cl)c1)c1cnn(-c2cncnc2)c1C(F)(F)F` [Cpd 15, N-(5-Chloro-6-(2H-1,2,3-triazol-2-yl)pyridin-3-yl)-1-(pyrimidin-5-yl)-5-(trifluoromethyl)-1H-pyrazole-4-carboxamide], the pIC50 was 5.46. For `CN1CCCc2c1cccc2-n1ncc(C(=O)Nc2cnc(-n3nccn3)c(C#N)c2)c1C(F)(F)F` [Cpd 127, N-(5-cyano-6-(2H-1,2,3-triazol-2-yl)pyridin-3-yl)-1-(1-methyl-1,2,3,4-tetrahydroquinolin-5-yl)-5-(trifluoromethyl)-1H-pyrazole-4-carboxamide], the pIC50 was 6.43. `Cc1c(-n2ncc(C(=O)Nc3cnc(-n4nccn4)c(Cl)c3)c2C(F)(F)F)ccnc1N1CC(O)C1` [Cpd 157, N-(5-chloro-6-(2H-1,2,3-triazol-2-yl)pyridin-3-yl)-1-(2-(3-hydroxyazetidin-1-yl)-3-methylpyridin-4-yl)-5-(trifluoromethyl)-1H-pyrazole-4-carboxamide] gave a pIC50 of 5.09. `Nc1ccc(-n2ncc(C(=O)Nc3cnc(-n4nccn4)c(Cl)c3)c2C(F)(F)F)cn1` [Cpd 125, 1-(6-aminopyridin-3-yl)-N-(5-chloro-6-(2H-1,2,3-triazol-2-yl)pyridin-3-yl)-5-(trifluoromethyl)-1H-pyrazole-4-carboxamide] showed a pIC50 of 5.72. `O=C(Nc1cnc(-n2nccn2)c(Cl)c1)c1cnn(-c2cccc(Br)n2)c1C(F)(F)F` [Cpd 202, 1-(6-bromopyridin-2-yl)-N-(5-chloro-6-(2H-1,2,3-triazol-2-yl)pyridin-3-yl)-5-(trifluoromethyl)-1H-pyrazole-4-carboxamide] gave a pIC50 of 6.13. `O=C(Nc1cnc(-n2nccn2)c(Cl)c1)c1cnn(-c2c(F)cccc2Cl)c1C(F)(F)F` [Cpd 90, N-(5-chloro-6-(2H-1,2,3-triazol-2-yl)pyridin-3-yl)-1-(2-chloro-6-fluorophenyl)-5-(trifluoromethyl)-1H-pyrazole-4-carboxamide] was tested, and the pIC50 was 6.24. `O=C(Nc1cnc(-n2nccn2)c(Cl)c1)c1cnn(-c2cc(F)ccc2Cl)c1C(F)(F)F` [Cpd 79, 1-(2-chloro-5-fluorophenyl)-N-(5-chloro-6-(2H-1,2,3-triazol-2-yl)pyridin-3-yl)-5-(trifluoromethyl)-1H-pyrazole-4-carboxamide] showed a pIC50 of 6.42. For `Cc1c(F)ccc(-n2ncc(C(=O)Nc3cnc(-n4nccn4)c(Cl)c3)c2C(F)(F)F)c1C` [Cpd 77, N-(5-chloro-6-(2H-1,2,3-triazol-2-yl)pyridin-3-yl)-1-(4-fluoro-2,3-dimethylphenyl)-5-(trifluoromethyl)-1H-pyrazole-4-carboxamide], the pIC50 was 6.05.
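Also: fluorogenic LRSR-AMC substrate cleavage by MALT1, 50 min compound preincubation then 4 h reaction at RT, 11-point dilution from 30 µM, scaled between enzyme-free and untreated enzyme controls.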
